Data reported in US20260174875A1 (Novo Nordisk A/S, priority 2023, published 2026).
Read-outs that look alike come from different tables or passages of the source. Numbered stars: 1 amine (or outer) side, 2 acyl side, 3 side chain; on linkers, the order of the positions; unused ones are H or OH. Square brackets hold non-standard residues; d marks the D form. Side chains are listed from the residue outwards. * marks the point of attachment. C20 diacid = O=C(O)CCCCCCCCCCCCCCCCCCC(=O)*; C18 diacid = O=C(O)CCCCCCCCCCCCCCCCC(=O)*; γGlu = O=C(O)[C@H](CCC(=O)[*:2])N[*:1]; AEEA = NCCOCCOCC(=O)O; Aib = CC(C)(N)C(=O)O

Tests used:
Format in all cases: cell-based
[1] = target: T1, human GLP-1 receptor (hGLP-1R) (Homo sapiens, UniProt P43220); test: GLP-1 receptor assay, method A (CRE-luciferase reporter, BHK cells)
T1 construct: expressed in transfected cells
Description: (§1) To assess how the activation of the receptors is potentially influenced by the presence of human serum albumin (HSA), the in vitro assays were performed in the absence of HSA and presence of 1% (w/v) HSA.
Cells at approximately 80-90% confluence were washed once in PBS (Gibco 14190-094) and loosened from the cell flasks with Versene (Gibco, 15040-033). […] Cells were aliquoted and stored at −180° C. until use.
(§2) The assay buffer consisted of DMEM without phenol red (Gibco, 11880-028) supplemented with 1× GlutaMAX (Gibco, 35050-038), 10 mM HEPES (Gibco, 15630-056), 1% (w/v) ovalbumin (Sigma, A5503) and 0.1% (v/v) Pluronic F-68 (Gibco, 24040-032) either with HSA or without HSA (Sigma, A9511).
Frozen stocks of hGLP-1R BHK CRE-Luc cells were thawed in a 37° C. water bath, washed once in PBS (Gibco 14190-094) and diluted to 1.5×10^6 (1.5E+6) cells/mL in assay buffer with or without 2% (w/v) HSA (Sigma, A9511). […] The assay plates were incubated for 3 hours at 37° C. in 5% CO2, left at room temperature for 5 minutes after which 100 μL steadylite Plus™ (PerkinElmer/Revvity, 6066759) was added to each well. Plates were sealed and incubated at room temperature with gentle shaking for 30 minutes while protected from light. Luminescence was detected on a luminescence plate reader e.g., a Synergy 2 (BioTek).

[2] = target: T2, human GIP receptor (hGIPR) (Homo sapiens, UniProt P48546); test: GIP receptor assay, method A (CRE-luciferase reporter, BHK cells)
T2 construct: expressed in transfected cells
T2 sequence (P48546 22-466): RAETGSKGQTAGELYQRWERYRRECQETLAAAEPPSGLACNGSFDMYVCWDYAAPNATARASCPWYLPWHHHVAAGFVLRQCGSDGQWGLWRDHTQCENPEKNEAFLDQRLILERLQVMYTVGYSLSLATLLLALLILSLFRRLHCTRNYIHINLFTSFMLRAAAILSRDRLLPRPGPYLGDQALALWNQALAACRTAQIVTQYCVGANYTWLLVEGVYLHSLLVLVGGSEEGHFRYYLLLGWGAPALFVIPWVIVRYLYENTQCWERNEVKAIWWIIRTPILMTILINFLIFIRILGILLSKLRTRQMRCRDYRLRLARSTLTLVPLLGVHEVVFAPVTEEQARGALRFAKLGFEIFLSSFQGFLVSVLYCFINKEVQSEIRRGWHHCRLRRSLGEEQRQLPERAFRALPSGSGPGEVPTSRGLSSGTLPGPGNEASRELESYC
Description: To assess how the activation of the receptors is potentially influenced by the presence of human serum albumin (HSA), the in vitro assays were performed in the absence of HSA and presence of 1% (w/v) HSA. Unless stated otherwise the reference to the “GIP receptor assay as described in Example 4” throughout the specification shall refer to the described herein assay procedure method A (hGIPR assay) in the absence of HSA.
Activation of the human GIP receptor leads to increased intra-cellular concentrations of cyclic AMP (cAMP) and the consequent transcription activation from promoters containing multiple copies of the cAMP response element (CRE). It is thus possible to measure GIP receptor activity using a CRE-luciferase reporter gene introduced into Baby Hamster Kidney (BHK) cells co-expressing the human GIP receptor.
Cells at about 80-90% confluency were washed once with PBS (Gibco 14190-094) and detached from the cell flasks with Versene (Gibco, 15040-066). After centrifugation, the cells were counted, resuspended and diluted to approximately 1.5-3.0×10^6 (1.5E+6 to 3.0E+6) cells/mL in Recovery Cell Culture Freezing Medium (Gibco, 12648-010) and stored at −180° C. in suitable aliquots until use.
as §2
On the day before the assay hGIPR BHK Cre-Luc cells were thawed and plated out in 96 well Culture Plates (PerkinElmer/Revvity, 6005680) at 5.0×10^3 (5.0E+3) cells/well in growth medium as described above. The plates were then incubated for 21-23 hours at 37° C. with 5% CO2. On the day of the assay GLP-1-/GIP-/amylin-receptor tri-agonists or reference compounds were diluted in assay buffer using a 7-point, 10-fold titration plus a blank (absence of compound). Each compound was diluted and tested in duplicates in each experiment. In the plates containing the cells the growth medium was removed, and cells were washed twice with 100 μL PBS (Gibco 14190-094). 50 μL of the test compound dilutions were added to the plates containing cells preceded by 50 μL assay buffer with or without 2% (w/v) HSA (Sigma, A9511). The cell plates were incubated for 3 hours in a 5% CO2 incubator at 37° C. The plates were then transferred to room temperature followed by addition of 100 μL steadylite Plus™ (PerkinElmer/Revvity, 6066759). The plates were sealed and shaken for 30 minutes at room temperature while protected from light. Finally, luminescence (as an indicator of receptor activation) was measured on a Mithras reader (Berthold Technologies, DE). The EC50-values [pM] were calculated by non-linear curve fitting applying a four-parameter logistic model (Hill slope=“shared value for all datasets”) using GraphPad Prism (GraphPad Software, Boston, MA, USA).

[3] = target: T3, human amylin receptor (hAMYR3) (Homo sapiens, UniProt O60896+P30988); test: Amylin receptor assay, method A (CRE-luciferase reporter, BHK cells)
T3 construct: host or cells: BHK cells (Hollex-1 line expressing hCTR(a) and CRE-Luc), further transfected with human RAMP3
Description: as §1
It is thus possible to measure hAMYR3 activity using a CRE-luciferase reporter gene introduced into Baby Hamster Kidney (BHK) cells co-expressing the hAMYR3.
The cell line was further transfected with human receptor modifying protein 3 (RAMP3) using standard methods.
After centrifugation, the cell pellet was resuspended and diluted to approximately 2.5-4.0×10^6 (2.5E+6 to 4.0E+6) cells/mL in Recovery™ Cell Culture Freezing Medium (Gibco, 12648-010). Cells were aliquoted and stored at −180° C. until use.
as §2, with “15630-056) and” for “15630-056),”, “either with or without” for “and”, “24040-032) and” for “24040-032)”, “with” for “with HSA”
The plate was incubated over night at 37° C. in 5% CO2. […] Luminescence was detected on a luminescence plate reader e.g., a Synergy 2 (BioTek).

[4] = hGLP-1R Potency, no HSA, EC50, method A, absence of HSA
[5] = hGIPR Potency, no HSA, EC50, method A, absence of HSA
[6] = hAMYR3 Potency, no HSA, EC50, method A, absence of HSA
[7] = hGLP-1R Potency, 1% HSA, EC50, method A, in the presence of 1% HSA
[8] = method A, absence of HSA, read-out: hGLP-1R Potency, no HSA, EC50
[9] = hGIPR Potency, 1% HSA, EC50, method A, in the presence of 1% HSA
[10] = method A, absence of HSA, read-out: hGIPR Potency, no HSA, EC50
[11] = hAMYR3 Potency, 1% HSA, EC50, method A, in the presence of 1% HSA
[12] = method A, absence of HSA, read-out: hAMYR3 Potency, no HSA, EC50

T1 sequence (P43220 24-463): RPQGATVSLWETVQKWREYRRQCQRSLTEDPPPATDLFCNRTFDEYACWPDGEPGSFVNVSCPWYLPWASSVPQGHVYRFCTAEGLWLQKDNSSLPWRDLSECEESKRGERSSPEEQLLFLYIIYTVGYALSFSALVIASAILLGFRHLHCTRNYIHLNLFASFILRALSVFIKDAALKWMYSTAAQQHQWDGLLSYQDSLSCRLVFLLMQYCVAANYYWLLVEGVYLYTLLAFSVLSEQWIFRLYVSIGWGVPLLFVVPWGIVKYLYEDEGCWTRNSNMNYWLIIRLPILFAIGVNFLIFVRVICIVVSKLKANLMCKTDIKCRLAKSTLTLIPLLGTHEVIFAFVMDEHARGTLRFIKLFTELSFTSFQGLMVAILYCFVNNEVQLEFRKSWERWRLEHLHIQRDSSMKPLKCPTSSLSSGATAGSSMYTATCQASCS
T3 sequence (P30988 25-474): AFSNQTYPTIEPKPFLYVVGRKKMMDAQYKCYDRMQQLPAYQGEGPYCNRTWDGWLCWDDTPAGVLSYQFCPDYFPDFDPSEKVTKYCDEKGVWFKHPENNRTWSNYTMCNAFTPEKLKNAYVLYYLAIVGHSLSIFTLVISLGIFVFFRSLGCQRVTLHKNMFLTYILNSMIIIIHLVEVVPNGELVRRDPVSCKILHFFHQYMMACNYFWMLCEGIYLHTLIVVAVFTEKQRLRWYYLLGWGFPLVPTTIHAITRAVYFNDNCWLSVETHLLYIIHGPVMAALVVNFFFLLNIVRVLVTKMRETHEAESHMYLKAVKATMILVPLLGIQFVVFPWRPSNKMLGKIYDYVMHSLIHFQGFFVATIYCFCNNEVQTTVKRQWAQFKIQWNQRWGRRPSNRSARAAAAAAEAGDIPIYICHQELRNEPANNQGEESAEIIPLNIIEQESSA
T3 sequence (O60896 24-148): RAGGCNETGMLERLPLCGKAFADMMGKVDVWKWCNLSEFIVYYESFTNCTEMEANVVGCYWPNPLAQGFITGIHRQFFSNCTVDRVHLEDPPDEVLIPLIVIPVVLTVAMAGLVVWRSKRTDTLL

Row | EC50 [1, 7] [nM] | EC50 [1, 8] [nM] | EC50 [2, 9] [nM] | EC50 [2, 10] [nM] | EC50 [3, 11] [nM] | EC50 [3, 12] [nM] | Substance | EC50 [1, 4] [nM] | EC50 [2, 5] [nM] | EC50 [3, 6] [nM]
1 |  |  |  |  |  |  | Y[Aib]EGTFTSDYSILLEEQAAREFIEWLLAGGPSK([γGlu-C20 diacid])GAPPPSGGGEASELSTAALGRLSAELHRLADLPRTETGSGSP-NH2 [Compound 41] | 0.0408 | 0.00502 | 0.00672
2 | 0.0575 | 0.0144 | 0.00896 | 0.00202 | 0.136 | 0.00253 | Y[Aib]EGTFTSDYSILLEEQAAREFIEWLLAGGPSSGAGQAPGQAPGASHLSTAQTARLSAELHK([AEEA-AEEA-γGlu-C18 diacid])LATLPRTETGSGSP-NH2 [Compound 113] |  |  | 
3 |  | 0.0321 |  | 0.00311 |  | 0.0103 | Y[Aib]EGTFTSDYSILLEEQAAREFIEWLLAGGPSK([AEEA-AEEA-γGlu-C18 diacid])GAPPEASELSTAALGRLSAELHELATLPRTETGSGSP-NH2 [Compound 33] |  |  | 
4 | 0.0431 | 0.0133 | 0.0112 | 0.00258 | 0.108 | 0.0023 | Y[Aib]EGTFTSDYSILLEEQAAREFIEWLLAGGPSSGAGQAPGQAPLASHLSTAQTARLSAELHK([AEEA-AEEA-γGlu-C18 diacid])LATLPRTETGSGSP-NH2 [Compound 98] |  |  | 
5 | 0.13 | 0.00669 | 0.122 | 0.00511 | 0.0584 | 0.00331 | H[Aib]HGTFTSDYSILLEEQAAREFIEWLLAGGPSK([AEEA-AEEA-γGlu-C18 diacid])GAPPPSGGGASELSTAALGRLSAELHRLATLPRTETGSGSP-NH2 [Compound 86] |  |  | 
6 | 0.105 | 0.0154 | 0.037 | 0.00428 | 0.19 | 0.00366 | Y[Aib]EGTFTSDYSILLEEQAAREFIEWLLAGGPSRGEASELSTAALGRLSAELHK([AEEA-AEEA-γGlu-C18 diacid])LATLPRTETGSGSP-NH2 [Compound 67] |  |  | 
7 | 0.0184 | 0.00334 | 0.00928 | 0.00277 | 0.274 | 0.00866 | H[Aib]HGTFTSDYSILLEEQAAREFIEWLLAGGPSRGAPPPSGGGEASHLSTQTQGRLSAELHK([AEEA-AEEA-γGlu-C18 diacid])LATLPRTETGSGSP-NH2 [Compound 71] |  |  | 
8 | 0.162 | 0.0168 | 0.03 | 0.00362 | 0.595 | 0.00373 | Y[Aib]EGTFTSDYSILLEEQAAREFIEWLLAGGPSGGGGEASHLSTAQTQRLSAELHK([AEEA-AEEA-γGlu-C20 diacid])LATLPRTETGSGSP-NH2 [Compound 96] |  |  | 
9 | 0.047 | 0.011 | 0.0122 | 0.00224 | 0.134 | 0.00326 | Y[Aib]EGTFTSDYSILLEEQAAREFIEWLLAGGPSSGAGQAPGQAPGASHLSTAQTQRLSAELHQLK([AEEA-AEEA-γGlu-C18 diacid])TLPRTETGSGSP-NH2 [Compound 102] |  |  | 
10 |  | 0.0153 |  | 0.0012 |  | 0.00517 | Y[Aib]EGTFTSDYSILLEEQAAREFIEWLLAGGPSK([AEEA-AEEA-γGlu-C18 diacid])GALAQTLGTNEASELSTAALGRLSAELHELATLPRTETGSGSP-NH2 [Compound 23] |  |  | 
11 |  | 0.0379 |  | 0.0024 |  | 0.00226 | Y[Aib]EGTFTSDYSILLEEQAAREFIEWLLAGGPSK([AEEA-AEEA-γGlu-C18 diacid])GAPPPSGGGGASELSTAALGRLSAELHRLATLPRTETGSGSP-NH2 [Compound 13] |  |  | 
12 | 1.93 | 0.0237 | 0.352 | 0.00162 | 0.14 | 0.00575 | Y[Aib]EGTFTSDYSILLEEQAAREFIEWLLAGGPSK([AEEA-AEEA-γGlu-C18 diacid])GGQEPGQEPGEASHLSTAQTQRLSAELHELATLPRTETGSGSP-NH2 [Compound 39] |  |  | 
13 | 0.0191 | 0.00416 | 0.0173 | 0.00357 | 0.293 | 0.00149 | H[Aib]HGTFTSDYSILLEEQAAREFIEWLLAGGPSSGAGQAPGQAPGASHLSTAQTARLSAELHK([AEEA-AEEA-γGlu-C20 diacid])LATLPRTETGSGSP-NH2 [Compound 104] |  |  | 
14 |  | 0.00525 |  | 0.00239 |  | 0.00232 | H[Aib]HGTFTSDYSILLEEQAAREFIEWLLAGGPSK([AEEA-AEEA-γGlu-C18 diacid])GEASQLSTAALGRLSAELHHLATLPRTETGSGSP-NH2 [Compound 66] |  |  | 

Row | Substance | EC50 [1, 7] [nM] | EC50 [1, 8] [nM] | EC50 [2, 9] [nM] | EC50 [2, 10] [nM] | EC50 [3, 11] [nM] | EC50 [3, 12] [nM] | EC50 [1, 4] [nM] | EC50 [2, 5] [nM] | EC50 [3, 6] [nM]
15 | H[Aib]HGTFTSDYSILLEEQAAREFIEWLLAGGPSK([γGlu-C18 diacid])GAPPPSGGGEASHLSTAQTARLSAELHRLADLPRTETGSGSP-NH2 [Compound 112] | 0.336 |  | 0.321 |  | 0.269 |  | 0.00437 | 0.00242 | 0.00365
16 | H[Aib]HGTFTSDYSILLEEQAAREFIEWLLAGGPSK([AEEA-AEEA-γGlu-C18 diacid])GEASQLSTAALGRLSAELHRLADLPRTETGSGSP-NH2 [Compound 43] | 0.0415 |  | 0.186 |  | 0.0565 |  | 0.00431 | 0.00438 | 0.00313
